Counter-ions that a name gives are not always drawn.
How the values were obtained:
[1] = test system: mice with type II collagen-induced arthritis; experiment: Test Example 4: feed given from day 28 (after induction), type II collagen-induced arthritis score; assay type: in vivo, DBA/1J mice; conditions: for Scores compared with control (in words): 0.1% added to the feed from day 28, any of the days after day 33; for Score of arthritis: 0.1% in feed starting at day 28, mean ±SE, N=10, scale 0-16
Method: (§1) Unless otherwise noted, in the following test examples, DBA/1J mice produced by Charles River, powder feed CE2 produced by CLEA Japan, N-acetylhydroxyproline produced by Kyowa Hakko Kogyo, D-glucosamine sulfate 2NaCl as glucosamine (Miyako Kagaku) and chondroitin sodium sulfate (Maruha Kagaku) as chondtoitin were used.
(§2) Scoring was carried out by applying 0-4 points with respect to one of four paws of mice: 0: no symptom; 1: swelling of one finger or swelling (slight) of the ankle; 2: swelling of 1-3 fingers or swelling of the ankle; 3: swelling of 3-5 fingers plus swelling of the ankle; and 4: swelling of all the fingers plus swelling of the ankle. Each mouse was scored the total of the points of 4 paws, namely, 0-16 points.
(§3) As in Test Example 1, 21 days after the first administration of type II collagen, a solution prepared by mixing an equal amount of type II collagen and Freund's complete adjuvant and emulsifying the mixture using a homogenizer in a similar manner as in Test Example 1 was intradermally administered to the mice in an amount of 100 μl per one animal as the second administration of type II collagen. In this manner, arthritis was induced in mice.
Starting at day 28 after the first administration of type II collagen, the mice were given powder feed CE-2 containing no additive as control; powder feed CE-2 containing 0.1% N-acetylhydroxyproline (indicated as AcHYP in Tables 4-1 and 4-2); powder feed CE-2 containing 0.1% glucosamine; powder feed CE-2 containing 0.05% N-acetylhydroxyproline and 0.05% glucosamine; powder feed CE-2 containing 0.05% glucosamine and 0.05% chondroitin; and powder feed CE-2 containing 0.05% N-acetylhydroxyproline, 0.025% glucosamine and 0.025% chondroitin, respectively. At days 28, 33, 36, 39 and 42 after the first administration of type II collagen, the extent of the development of arthritis was scored according to the indices employed in the above Test Example 1.
Ten mice were subjected to the test with respect to each of the conditions.
In the tables, the figures show the scores under different treatment conditions, which are given as mean ±SE (N=10).
(§4) In the tables, “no treatment” means no administration of type II collagen, and “control” means mice were given the feed containing no additive.

[2] = test system: mice with type II collagen-induced arthritis; experiment: Test Example 2: N-acetylhydroxyproline and chondroitin in feed, type II collagen-induced arthritis score; assay type: in vivo, DBA/1J mice; set-up: key to Score of arthritis: sum of 4 paws scored 0-4 each, 0-16 points; 0 = no symptom; conditions: for Score compared with control (in words): 0.1% added to the feed; for Score of arthritis: 0.1% in feed from day of first collagen administration, mean ±SE, N=20, scale 0-16
Method: as §1, §2
An experiment similar to that of Test Example 1 was carried out except that chondroitin was used in place of glucosamine.
as §3, with “That is,” for “As in Test Example 1,”
Starting on the day of the first administration of type II collagen, the mice were given powder feed CE-2 containing no additive as control; powder feed CE-2 containing 0.1% N-acetylhydroxyproline (indicated as AcHYP in Tables 2-1 and 2-2); powder feed CE-2 containing 0.1% chondroitin; and powder feed CE-2 containing 0.05% N-acetylhydroxyproline and 0.05% chondroitin, respectively. At days 23, 27, 30, 33, 36, 40 and 42 after the first administration of type II collagen, the extent of the development of arthritis was scored according to the indices employed in the above Test Example 1.
(§5) Twenty mice were subjected to the test with respect to each of the conditions.
(§6) In the tables, the figures show the scores under different treatment conditions, which are given as mean ±SE (N=20).
as §4

[3] = test system: mice with type II collagen-induced arthritis; experiment: Test Example 3: N-acetylhydroxyproline, glucosamine and chondroitin in feed, type II collagen-induced arthritis score; assay type: in vivo, DBA/1J mice; conditions: for Score of arthritis: 0.05% of each additive in feed from day of first collagen administration, mean ±SE, N=20, scale 0-16
Method: as §1, §2
An experiment similar to that of Test Example 1 was carried out except that glucosamine and chondroitin were used in place of glucosamine.
as §3, with “That is,” for “As in Test Example 1,”
Starting on the day of the first administration of type II collagen, the mice were given powder feed CE-2 containing no additive as control; powder feed CE-2 containing 0.05% N-acetylhydroxyproline (indicated as AcHYP in Tables 3-1 and 3-2); powder feed CE-2 containing 0.05% N-acetylhydroxyproline and 0.05% chondroitin; and powder feed CE-2 containing 0.05% N-acetylhydroxyproline, 0.05% glucosamine and 0.05% chondroitin, respectively. At days 24, 28, 31, 35, 38 and 42 after the first administration of type II collagen, the extent of the development of arthritis was scored according to the indices employed in the above Test Example 1.
as §5, §6, §4

arthritis = conditions: Pharmacological Research, 33, 367-373 (1996); cited from earlier work
[4] = test system: animal model for arthritis; conditions: administration after induction of arthritis; J. Drug. Dev., 3, 135-142 (1990); cited from earlier work
[5] = test system: mice with type II collagen-induced arthritis; experiment: Test Example 1: N-acetylhydroxyproline and glucosamine in feed, type II collagen-induced arthritis score; assay type: in vivo, DBA/1J mice; conditions: for Scores compared with control (in words): 0.1% added to the feed, compared with no additive (control); for Score of arthritis: 0.1% in feed from day of first collagen administration, mean ±SE, N=20, scale 0-16
Text: as §1
It is known that arthritis is induced in DBA/1J mice by administering type II collagen two times.
As the first administration of type II collagen, a solution prepared by mixing an equal amount of type II collagen [Collagen Gijutsu Kenshu Kaisha (MCK)] and Freund's complete adjuvant (Iatron) and emulsifying the mixture using a homogenizer was intradermally administered to 6-week old male DBA/1J mice in an amount of 100 μl per one animal.
as §3, with “Twenty-one days” for “As in Test Example 1, 21 days”, “collagen, EXAMPLE” for “collagen,”, “manner” for “manner as in Test Example 1”, “the animals” for “the mice”
Starting on the day of the first administration of type II collagen, the mice were given powder feed CE-2 containing no additive as control; powder feed CE-2 containing 0.1% N-acetylhydroxyproline (indicated as AcHYP in Tables 1-1 and 1-2); powder feed CE-2 containing 0.1% glucosamine (D-glucosamine sulfate 2NaCl); and powder feed CE-2 containing 0.05% N-acetylhydroxyproline and 0.05% glucosamine, respectively. At days 24, 28, 31, 34, 38 and 42 after the first administration of type II collagen, the extent of the development of arthritis was scored according to the following indices.
as §2, §5, §6, §4

[6] = test system: mice with type II collagen-induced arthritis; experiment: Test Example 4: feed given from day 28 (after induction), type II collagen-induced arthritis score; assay type: in vivo, DBA/1J mice; conditions: day 0 (before feeding); 0.1% in feed starting at day 28; mean ±SE, N=10; scale 0-16

For CC(=O)N1C[C@H](O)C[C@H]1C(=O)O [AcHYP, N-acetylhydroxyproline], the “Scores compared with control (in words)” value [1] was “slight lowering of the scores”, the Score of arthritis ([1]; day 28 (start of feeding)) was 4.3 ± 0.9 and the Score of arthritis ([1]; day 33) was 9.8 ± 1.0. For the same molecule, the Score of arthritis ([1]; day 36) was 10.9 ± 1.1, the Score of arthritis ([1]; day 39) was 10.7 ± 1.1 and the Score of arthritis ([1]; day 42) was 10.8 ± 1.0. The “Score compared with control (in words)” value ([2]; any of the days after day 27) was “lowering of the score”, the Score of arthritis ([2]; day 0) was 0.0 ± 0.0 and the Score of arthritis ([2]; day 23) was 0.1 ± 0.1. For the same molecule, the Score of arthritis ([2]; day 27) was 3.3 ± 0.7, the Score of arthritis ([2]; day 30) was 7.0 ± 0.9 and the Score of arthritis ([2]; day 33) was 7.8 ± 0.9. It also gave a Score of arthritis ([2]; day 36) of 7.9 ± 1.0, a Score of arthritis ([2]; day 40) of 8.4 ± 0.9 and a Score of arthritis ([2]; day 42) of 8.8 ± 0.8. For the same molecule, the “Scores compared with control (in words)” value ([3]; 0.05% of each additive in the feed, any of the days after day 24) was “almost no lowering of the scores”, the Score of arthritis ([3]; day 0) was 0.0 ± 0.0 and the Score of arthritis ([3]; day 24) was 0.2 ± 0.1. For the same molecule, the Score of arthritis ([3]; day 28) was 5.4 ± 0.6, the Score of arthritis ([3]; day 31) was 8.5 ± 0.7 and the Score of arthritis ([3]; day 35) was 9.4 ± 0.8. The Score of arthritis ([3]; day 38) was 9.9 ± 0.8, the Score of arthritis ([3]; day 42) was 9.4 ± 0.7 and the “Effect on chondral injury at joints” value (arthritis) was “shows no effect”. For the same molecule, the “Effect on systemic injury of ear and tail” value (arthritis) was “shows a therapeutic effect”, the Aggravation of arthritis [4] was “can prevent aggravation of arthritis” and the “Scores compared with control (in words)” value [5] was “lowering of the scores”. The Score of arthritis ([5]; day 0) was 0.0 ± 0.0, the Score of arthritis ([5]; day 24) was 0.0 ± 0.0 and the Score of arthritis ([5]; day 28) was 6.5 ± 0.7. It also gave a Score of arthritis ([5]; day 31) of 9.5 ± 0.8, a Score of arthritis ([5]; day 34) of 10.7 ± 0.8 and a Score of arthritis ([5]; day 38) of 10.8 ± 0.8. For the same molecule, the Score of arthritis ([5]; day 42) was 10.6 ± 0.8 and the Score of arthritis [6] was 0.0 ± 0.0.
With N[C@H]1C(O)O[C@H](CO)[C@@H](O)[C@@H]1O (stereo partly drawn) [Glucosamine, D-glucosamine sulfate 2NaCl] the “Scores compared with control (in words)” value [1] was “slight lowering of the scores”, the Score of arthritis ([1]; day 28 (start of feeding)) was 4.3 ± 0.9 and the Score of arthritis ([1]; day 33) was 9.8 ± 1.2. The Score of arthritis ([1]; day 36) was 10.1 ± 1.1, the Score of arthritis ([1]; day 39) was 10.4 ± 1.0 and the Score of arthritis ([1]; day 42) was 10.6 ± 1.0. For the same molecule, the “Scores compared with control (in words)” value [5] was “lowering of the scores”, the Score of arthritis ([5]; day 0) was 0.0 ± 0.0 and the Score of arthritis ([5]; day 24) was 0.1 ± 0.1. The Score of arthritis ([5]; day 28) was 5.8 ± 0.6, the Score of arthritis ([5]; day 31) was 7.7 ± 0.7 and the Score of arthritis ([5]; day 34) was 9.2 ± 0.7. For the same molecule, the Score of arthritis ([5]; day 38) was 9.5 ± 0.6, the Score of arthritis ([5]; day 42) was 9.4 ± 0.6 and the Score of arthritis [6] was 0.0 ± 0.0.
In the case of chondroitin sodium sulfate, the “Score compared with control (in words)” value ([2]; after day 36) is reported as “almost no lowering of the score”, the “Score compared with control (in words)” value ([2]; until day 33) is reported as “slight lowering of the score” and the Score of arthritis ([2]; day 0) is reported as 0.0 ± 0.0. The Score of arthritis ([2]; day 23) was 0.1 ± 0.1, the Score of arthritis ([2]; day 27) was 3.4 ± 0.6 and the Score of arthritis ([2]; day 30) was 7.8 ± 1.0. For the same molecule, the Score of arthritis ([2]; day 33) was 9.1 ± 0.9, the Score of arthritis ([2]; day 36) was 9.7 ± 0.8 and the Score of arthritis ([2]; day 40) was 9.9 ± 0.8. For the same molecule, the Score of arthritis ([2]; day 42) was 9.8 ± 0.7.
